# Test results published in paper PMC11876601 (Molecular Systems Biology, 2025).
# Where “and” joins values, the source holds several entries; their conditions need not be identical. Identical values can stand only once. Like-named read-outs stand apart in the source and are kept apart here.
# System: AsPC-1 cells
# Experiment: Cell proliferation assay, chemodrug + ATR inhibitor (Incucyte confluence, 72 h);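 further: underlying read-out for every value is AsPC-1 confluence after 72 h incubation at 37 °C and 5% CO2, divided by that well's starting confluence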
# Conditions: for Curve bottom / Curve slope / Curve top / EC50 / pEC50: AsPC-1; for Ratio: Response / Response vehicle (mean)
# [1] = Experiment GEM (no ATRi), single replicates R1-R3
# [2] = Experiment GEM+ATRi_dose1, single replicates R1-R3
# [3] = Experiment GEM+ATRi_dose2, single replicates R1-R3
# [4] = Experiment GEM+ATRi_dose3, single replicates R1-R3
# [5] = Drug 0 nM + ATRi 3 nM (ATRi alone, GEM+ATRi_dose1 series), replicates R1-R3
# [6] = Drug 0 nM + ATRi 10 nM (ATRi alone, GEM+ATRi_dose2 series), replicates R1-R3
# [7] = Drug 0 nM + ATRi 30 nM (ATRi alone, GEM+ATRi_dose3 series), replicates R1-R3
# [8] = Drug 1 nM + ATRi 3 nM (GEM+ATRi_dose1), replicates R1-R3
# [9] = Drug 1 nM + ATRi 10 nM (GEM+ATRi_dose2), replicates R1-R3
# [10] = Drug 1 nM + ATRi 30 nM (GEM+ATRi_dose3), replicates R1-R3
# [11] = Drug 1 nM alone, ATRi 0 nM (experiment 'GEM'), replicates R1-R3
# [12] = Drug 3 nM + ATRi 3 nM (GEM+ATRi_dose1), replicates R1-R3
# [13] = Drug 3 nM + ATRi 10 nM (GEM+ATRi_dose2), replicates R1-R3
# [14] = Drug 3 nM + ATRi 30 nM (GEM+ATRi_dose3), replicates R1-R3
# [15] = Drug 3 nM alone, ATRi 0 nM (experiment 'GEM'), replicates R1-R3
# [16] = Drug 10 nM + ATRi 3 nM (GEM+ATRi_dose1), replicates R1-R3
# [17] = Drug 10 nM + ATRi 10 nM (GEM+ATRi_dose2), replicates R1-R3
# [18] = Drug 10 nM + ATRi 30 nM (GEM+ATRi_dose3), replicates R1-R3
# [19] = Drug 10 nM alone, ATRi 0 nM (experiment 'GEM'), replicates R1-R3
# [20] = Drug 30 nM + ATRi 3 nM (GEM+ATRi_dose1), replicates R1-R3
# [21] = Drug 30 nM + ATRi 10 nM (GEM+ATRi_dose2), replicates R1-R3
# [22] = Drug 30 nM + ATRi 30 nM (GEM+ATRi_dose3), replicates R1-R3
# [23] = Drug 30 nM alone, ATRi 0 nM (experiment 'GEM'), replicates R1-R3
# [24] = Drug 100 nM + ATRi 3 nM (GEM+ATRi_dose1), replicates R1-R3
# [25] = Drug 100 nM + ATRi 10 nM (GEM+ATRi_dose2), replicates R1-R3
# [26] = Drug 100 nM + ATRi 30 nM (GEM+ATRi_dose3), replicates R1-R3
# [27] = Drug 100 nM alone, ATRi 0 nM (experiment 'GEM'), replicates R1-R3
# [28] = Drug 300 nM + ATRi 3 nM (GEM+ATRi_dose1), replicates R1-R3
# [29] = Drug 300 nM + ATRi 10 nM (GEM+ATRi_dose2), replicates R1-R3
# [30] = Drug 300 nM + ATRi 30 nM (GEM+ATRi_dose3), replicates R1-R3
# [31] = Drug 300 nM alone, ATRi 0 nM (experiment 'GEM'), replicates R1-R3
# [32] = Drug 1000 nM + ATRi 3 nM (GEM+ATRi_dose1), replicates R1-R3
# [33] = Drug 1000 nM + ATRi 10 nM (GEM+ATRi_dose2), replicates R1-R3
# [34] = Drug 1000 nM + ATRi 30 nM (GEM+ATRi_dose3), replicates R1-R3
# [35] = Drug 1000 nM alone, ATRi 0 nM (experiment 'GEM'), replicates R1-R3
# [36] = Drug 3000 nM + ATRi 3 nM (GEM+ATRi_dose1), replicates R1-R3
# [37] = Drug 3000 nM + ATRi 10 nM (GEM+ATRi_dose2), replicates R1-R3
# [38] = Drug 3000 nM + ATRi 30 nM (GEM+ATRi_dose3), replicates R1-R3
# [39] = Drug 3000 nM alone, ATRi 0 nM (experiment 'GEM'), replicates R1-R3
# [40] = chemodrug 30 nM alone (ATRi 0 nM)
# [41] = chemodrug 100 nM alone (ATRi 0 nM)
# [42] = chemodrug 300 nM alone (ATRi 0 nM)
# [43] = chemodrug 1000 nM alone (ATRi 0 nM)
# [44] = chemodrug 3000 nM alone (ATRi 0 nM)
# Experimental: Cells were seeded at 5000 cells/well into 96-well flat bottom plates (Eppendorf) and allowed to attach overnight. […] Cells were incubated for 72 h at 37 °C and 5% CO2. Cell confluence readouts at 72 h were either normalized to their initial confluence using the Incucyte software (AsPC-1) or used without prior normalization (all others). […] Each experiment was performed in triplicates, the data was plotted as mean ± standard deviation (s.d.).
structure (smiles),measurement,setting,value
N.N.[Cl][Pt][Cl] [Cisplatin],Curve bottom,[1],1.04 and 1.01 and 1.00
same,Curve slope,[1],1.30 and 2.18 and 1.82
same,Curve top,[1],0.20 and 0.35 and 0.27
same,EC50,[1],513 nM and 218 nM and 302 nM
same,pEC50,[1],6.29 and 6.66 and 6.52
same,Curve bottom,[2],1.05 and 1.02 and 1.03
same,Curve slope,[2],1.41 and 1.64 and 1.76
same,Curve top,[2],0.25 and 0.33 and 0.27
same,EC50,[2],172 nM and 118 nM and 151 nM
same,pEC50,[2],6.76 and 6.93 and 6.82
same,Curve bottom,[3],1.03 and 1.00 and 1.02
same,Curve slope,[3],1.60 and 1.79 and 1.21
same,Curve top,[3],0.28 and 0.31 and 0.26
same,EC50,[3],36.4 nM and 34.9 nM and 37.1 nM
same,pEC50,[3],7.44 and 7.46 and 7.43
same,Curve bottom,[4],0.90 and 0.95 and 0.88
same,Curve slope,[4],0.65 and 0.81 and 0.69
same,Curve top,[4],0.22 and 0.29 and 0.23
same,EC50,[4],6.62 nM and 4.98 nM and 7.67 nM
same,pEC50,[4],8.18 and 8.30 and 8.12
same,Response,[5],86.95 and 90.22 and 92.73
same,Response,[6],86.95 and 90.22
same,Response,[7],75.87 and 84.36
same,Response,[8],87.64 and 91.58 and 92.37
same,Response,[9],86.97 and 90.31
same,Response,[10],68.28 and 77.94
same,Response,[11],87.69 and 92.23
same,Response,[12],91.78 and 94.40 and 93.95
same,Response,[13],85.95 and 90.04
same,Response,[14],52.30 and 58.04
same,Response,[15],89.38 and 90.87
same,Response,[16],89.09 and 93.32 and 91.50
same,Response,[17],81.41 and 84.65
same,Response,[18],41.30 and 46.95
same,Response,[19],87.15 and 91.05
same,Response,[20],84.14 and 83.47 and 86.69
same,Response,[21],60.15 and 63.62
same,Response,[22],36.88 and 38.31
same,Response,[23],87.92 and 89.82
same,Response,[24],67.31 and 66.59 and 71.27
same,Response,[25],33.79 and 36.06
same,Response,[26],30.17 and 37.05
same,Response,[27],79.92 and 81.64
same,Response,[28],43.01 and 39.79 and 38.91
same,Response,[29],30.09 and 31.69
same,Response,[30],22.83 and 27.53
same,Response,[31],65.38 and 51.74
same,Response,[32],27.32 and 30.30 and 27.51
same,Response,[33],23.88 and 28.00
same,Response,[34],20.74 and 24.11
same,Response,[35],37.94 and 32.34
same,Response,[36],22.35 and 31.11 and 24.18
same,Response,[37],21.92 and 27.23 and 22.65
same,Response,[38],19.23 and 26.92
same,Response,[39],23.81 and 32.93
same,Ratio,[5],1.02 and 1.00 and 1.03
same,Ratio,[6],1.02 and 1.00
same,Ratio,[7],0.89 and 0.93
same,Ratio,[8],1.03 and 1.01 and 1.02
same,Ratio,[9],1.02 and 1.00
same,Ratio,[10],0.80 and 0.86
same,Ratio,[11],1.03 and 1.02
same,Ratio,[12],1.08 and 1.04
same,Ratio,[13],1.01 and 1.00
same,Ratio,[14],0.61 and 0.64
same,Ratio,[15],1.05 and 1.00
same,Ratio,[16],1.05 and 1.03 and 1.01
same,Ratio,[17],0.96 and 0.94
same,Ratio,[18],0.49 and 0.52
same,Ratio,[19],1.02 and 1.01
same,Ratio,[20],0.99 and 0.92 and 0.96
same,Ratio,[21],0.71 and 0.70
same,Ratio,[22],0.43 and 0.42
same,Ratio,[23],1.03 and 0.99
same,Ratio,[24],0.79 and 0.74
same,Ratio,[25],0.40
same,Ratio,[26],0.35 and 0.41
same,Ratio,[27],0.94 and 0.90
same,Ratio,[28],0.51 and 0.44 and 0.43
same,Ratio,[29],0.35
same,Ratio,[30],0.27 and 0.30
same,Ratio,[31],0.77 and 0.57
same,Ratio,[32],0.32 and 0.34 and 0.31
same,Ratio,[33],0.28 and 0.31
same,Ratio,[34],0.24 and 0.27
same,Ratio,[35],0.45 and 0.36
same,Ratio,[36],0.26 and 0.34 and 0.27
same,Ratio,[37],0.26 and 0.30 and 0.25
same,Ratio,[38],0.23 and 0.30
same,Ratio,[39],0.28 and 0.36
same,Ratio (Response / Response vehicle (mean)),chemodrug 1 nM + ATRi 10 nM,1.00
same,Response,chemodrug 1 nM + ATRi 10 nM,89.91
same,Ratio (Response / Response vehicle (mean)),chemodrug 1 nM + ATRi 30 nM,0.80
same,Response,chemodrug 1 nM + ATRi 30 nM,71.79
same,Ratio (Response / Response vehicle (mean)),chemodrug 1 nM alone (ATRi 0 nM),1.02
same,Ratio (Response / Response vehicle (mean)),chemodrug 3 nM + ATRi 10 nM,0.99
same,Response,chemodrug 3 nM + ATRi 10 nM,89.48
same,Ratio (Response / Response vehicle (mean)),chemodrug 3 nM + ATRi 30 nM,0.63
same,Response,chemodrug 3 nM + ATRi 30 nM,57.06
same,Ratio (Response / Response vehicle (mean)),chemodrug 3 nM alone (ATRi 0 nM),1.00
same,Ratio (Response / Response vehicle (mean)),chemodrug 10 nM + ATRi 10 nM,0.89
same,Response,chemodrug 10 nM + ATRi 10 nM,80.53
same,Ratio (Response / Response vehicle (mean)),chemodrug 10 nM + ATRi 30 nM,0.51
same,Response,chemodrug 10 nM + ATRi 30 nM,45.87
same,Ratio (Response / Response vehicle (mean)),chemodrug 10 nM alone (ATRi 0 nM),0.99
same,Ratio (Response / Response vehicle (mean)),chemodrug 30 nM + ATRi 10 nM,0.69
same,Response,chemodrug 30 nM + ATRi 10 nM,62.02
same,Ratio (Response / Response vehicle (mean)),chemodrug 30 nM + ATRi 30 nM,0.43
same,Response,chemodrug 30 nM + ATRi 30 nM,38.92
same,Ratio (Response / Response vehicle (mean)),[40],1.03
same,Response,[40],92.93
same,Ratio (Response / Response vehicle (mean)),chemodrug 100 nM + ATRi 10 nM,0.43
same,Response,chemodrug 100 nM + ATRi 10 nM,39.16
same,Ratio (Response / Response vehicle (mean)),chemodrug 100 nM + ATRi 30 nM,0.35
same,Response,chemodrug 100 nM + ATRi 30 nM,31.50
same,Ratio (Response / Response vehicle (mean)),[41],0.90
same,Response,[41],81.28
same,Ratio (Response / Response vehicle (mean)),chemodrug 300 nM + ATRi 10 nM,0.31
same,Response,chemodrug 300 nM + ATRi 10 nM,28.30
same,Ratio (Response / Response vehicle (mean)),chemodrug 300 nM + ATRi 30 nM,0.27
same,Response,chemodrug 300 nM + ATRi 30 nM,23.96
same,Ratio (Response / Response vehicle (mean)),[42],0.65
same,Response,[42],58.52
same,Ratio (Response / Response vehicle (mean)),chemodrug 1000 nM + ATRi 10 nM,0.29
same,Response,chemodrug 1000 nM + ATRi 10 nM,25.88
same,Ratio (Response / Response vehicle (mean)),chemodrug 1000 nM + ATRi 30 nM,0.26
same,Response,chemodrug 1000 nM + ATRi 30 nM,23.54
same,Ratio (Response / Response vehicle (mean)),[43],0.34
same,Response,[43],30.70
same,Ratio (Response / Response vehicle (mean)),chemodrug 3000 nM + ATRi 30 nM,0.23
same,Response,chemodrug 3000 nM + ATRi 30 nM,20.88
same,Ratio (Response / Response vehicle (mean)),[44],0.29
same,Response,[44],26.17
same,sensitization of AsPC-1 cells to the chemodrug by Elimusertib,chemodrug + three sub-EC50 doses of Elimusertib,sensitized
same,EC50,"read-out: EC50 mean, Experiment GEM (no ATRi), mean of R1-R3, repeated in each replicate line",344 nM
same,EC50,"read-out: EC50 mean, Experiment GEM+ATRi_dose1, mean of R1-R3, repeated in each replicate line",147 nM
same,EC50,"read-out: EC50 mean, Experiment GEM+ATRi_dose2, mean of R1-R3, repeated in each replicate line",36.1 nM
same,EC50,"read-out: EC50 mean, Experiment GEM+ATRi_dose3, mean of R1-R3, repeated in each replicate line",6.42 nM
